Experimental data from patent publication US20240180893A1, “METHODS OF TREATMENT OF BREAST CANCER” (AstraZeneca AB, priority 2022, published 2024).

Experiments:
[1] = tested on: HR+, HER2− metastatic or loco-regionally recurrent breast cancer; experiment: SERENA-2 phase 2 study: progression free survival (PFS), RECIST 1.1, assessed by Investigator; assay type: in vivo, human (post-menopausal women)
Description: In embodiments of the present speciation the method of treatments, ngSERD for use in treatment or for use in the manufacture of a medicament, kit or pharmaceutical composition for use delivers an improvement in the time to disease progression or progression free survival (PFS) relative to that obtained from use of fulvestrant (the first generation SERD). In such embodiment the PFS improvement is relative to that observed with standard of care, i.e. fulvestrant administered at the approved dose of 500 mg once monthly by injection. Clinical activity as assessed by PFS can be determined by the standard assessment of tumour response as per RECIST 1.1 (Eisenhauser et al., Eur J Cancer 2009 January; 45(2):228-47). The RECIST criteria can be evaluated by the treating physician/investigator or by Blinded Independent Central Review (BICR).
In the SERENA-2 clinical trial, further details of which are provided below, the efficacy of camizestrant administered once daily in tablet form at doses of 75 mg and 150 mg as a treatment for patients with HR+, HER2− metastatic or loco-regionally recurrent breast cancer that the breast cancer has recurred or progressed following at least one prior line of endocrine therapy was assessed. The control arm patient in this study were treated with standard of care fulvestrant, the first generation SERD, administered as once monthly 500 mg injection. The study was powered to differentiate between the camizestrant and standard of care, fulvestrant (F), treatment arms, but was not powered to differentiate between the 75 mg and 150 mg camizestrant dose cohorts.
A randomised, open-label, parallel-group, multicentre phase 2 study comparing the efficacy and safety of oral AZD9833 versus fulvestrant in women with advanced er-positive her2-negative breast cancer was carried out according to the following protocol and schedule of activities. The study evaluated the efficacy and safety of AZD9833 (75, 150 and 300 mg, oral [PO]) administered once daily as a monotherapy in comparison with fulvestrant administered according to its label (i. e., slow IM injection into the buttocks [1 to 2 minutes per injection] as two 5-mL injections, 1 in each buttock, on Day 1, Day 15, Day 29 and 4-weekly thereafter).
This is a randomised, open-label, parallel-group, multicentre Phase 2 study to compare the efficacy and safety of daily PO AZD9833 versus IM fulvestrant in women with advanced ER positive HER2 negative breast cancer. Post-menopausal women with histologically or cytologically confirmed metastatic or loco-regionally recurrent disease before randomisation and fulfilling all of the inclusion criteria and none of the exclusion criteria will be included. Randomisation will be stratified according to the prior use of CDK4/6 inhibitors and the presence of liver and/or lung metastases.
After the screening visit and confirmation of eligibility, patients will be randomly assigned in a 1:1:1:1 ratio to receive 1 of the following 4 treatments, consisting in 4-week treatment cycles until disease progression (assessed by the Investigator as defined by Response Evaluation Criteria in Solid Tumours [RECIST] version 1.1): • AZD9833 (75 mg, PO, once daily) • AZD9833 (150 mg, PO, once daily) • AZD9833 (300 mg, PO, once daily) • Fulvestrant (500 mg IM, Day 1, Day 15, Day 29, and 4-weekly thereafter)
Efficacy assessments. Assessment of tumour response. The assessment of tumour response per RECIST version 1.1 will be used to determine the clinical activity (assessed by PFS) and anti-tumour activity (assessed by ORR, clinical benefit rate [CBR]) of AZD9833 and fulvestrant.
Investigator's assessment of tumour response per RECIST version 1.1. Tumour response will be assessed by the Investigators per RECIST version 1.1 (Eisenhauer et al. 2009). From the Investigator's review of the imaging scans, the evaluation of TLs, NTLs and new lesions will be used to determine the overall visit response for each patient. […]

[2] = tested on: HR+, HER2− metastatic or loco-regionally recurrent breast cancer; experiment: SERENA-2 phase 2 study: clinical benefit rate at 24 weeks (CBR24); assay type: in vivo, human (post-menopausal women); conditions: for Adjusted CBR24 rate (%): logistic regression, factors prior CDK4/6 inhibitor and lung and/or liver metastasis; for CBR24: comparison against fulvestrant, odds ratio: odds ratio > 1 favors AZD9833
Description: (§1) The CBR24 is defined as the percentage of patients who have a best objective response (BoR) of CR or PR in the first 25 weeks (to allow for a late assessment within the assessment window) or who have SD (without subsequent cancer therapy) for at least 23 weeks after start of treatment (to allow for an early assessment within the assessment window). The CBR is defined based on the Investigator's assessment of RECIST 1.1.
The CBR24 will be summarised by treatment group and analysed using a logistic regression model (similarly to the analysis for the ORR).
as §1, with “Secondary endpoints: clinical benefit rate at 24 weeks. The CBR24” for “The CBR24”, “The CBR will be defined based” for “The CBR is defined based”, “assessment of RECIST, and will be summarised by treatment group and analysed using a logistic regression model (similarly to the analysis for the ORR).” for “assessment of RECIST 1.1.”

[3] = camizestrant 75 mg once daily, all patients, by Investigator
[4] = camizestrant 75 mg, subgroup with metastases to the liver and/or lungs
[5] = camizestrant 75 mg, subgroup with prior CDK4/6 inhibitor therapy
[6] = camizestrant 150 mg once daily, all patients, by Investigator
[7] = camizestrant 150 mg, subgroup with metastases to the liver and/or lungs
[8] = camizestrant 150 mg, subgroup with prior CDK4/6 inhibitor therapy
[9] = fulvestrant 500 mg once monthly injection, all patients, by Investigator
[10] = fulvestrant 500 mg, ESR1m subgroup
[11] = fulvestrant 500 mg, subgroup with metastases to the liver and/or lungs
[12] = fulvestrant 500 mg, subgroup with prior CDK4/6 inhibitor therapy

C[C@@H]1Cc2c(ccc3[nH]ncc23)[C@@H](c2ccc(NC3CN(CCCF)C3)cn2)N1CC(F)(F)F [camizestrant, N-(1-(3-fluoropropyl)azetidin-3-yl)-6-((6S,8R)-8-methyl-7-(2,2,2-trifluoroethyl)-6,7,8,9-tetrahydro-3H-pyrazolo[4,3-f]isoquinolin-6-yl)pyridin-3-amine]
PFS events [no.] ([1]; AZD9833 75 mg (n = 22), subgroup with mutation to the estrogen receptor (ESR1m)): 15 | Hazard ratio vs fulvestrant ([1]; AZD9833 75 mg, ESR1m subgroup): 0.33 | Median PFS ([1]; AZD9833 75 mg, ESR1m subgroup): 6.3 months | PFS events (%) ([1]; AZD9833 75 mg, ESR1m subgroup): (68.2) % | PFS events [no.] ([1]; AZD9833 150 mg (n = 26), subgroup with mutation to the estrogen receptor (ESR1m)): 22 | Hazard ratio vs fulvestrant ([1]; AZD9833 150 mg, ESR1m subgroup): 0.55 | Median PFS ([1]; AZD9833 150 mg, ESR1m subgroup): 9.2 months | PFS events (%) ([1]; AZD9833 150 mg, ESR1m subgroup): (84.6) % | Improvement of PFS over fulvestrant ([1]; both camizestrant arms (75 mg and 150 mg), all comer population, by either Investigator or BICR): at least 3.5 months | PFS events [n] ([1]; camizestrant 75 mg (n = 38), subgroup with prior CDK4/6 inhibitor therapy): 29 | PFS events [no.] ([1]; camizestrant 75 mg (n = 43), subgroup with metastases to the liver and/or lungs): 31 | Hazard ratio for disease progression relative to fulvestrant [1, 3]: 0.58 | Proportion of patients without progression at 12 m [1, 3]: 34.3% | Median PFS ([1]; camizestrant 75 mg tablet once daily, all patients, by Investigator): 7.2 months | Hazard ratio vs fulvestrant [1, 4]: 0.43 | Median PFS [1, 4]: 7.2 months | PFS events (%) [1, 4]: (72.1) % | Hazard ratio vs fulvestrant [1, 5]: 0.49 | Median PFS [1, 5]: 5.5 months | PFS events (%) [1, 5]: (76.3) % | PFS events [n] ([1]; camizestrant 150 mg (n = 37), subgroup with prior CDK4/6 inhibitor therapy): 29 | PFS events [no.] ([1]; camizestrant 150 mg (n = 43), subgroup with metastases to the liver and/or lungs): 32 | Hazard ratio for disease progression relative to fulvestrant [1, 6]: 0.67 | Proportion of patients without progression at 12 m [1, 6]: 44.5% | Median PFS ([1]; camizestrant 150 mg tablet once daily, all patients, by Investigator): 7.7 months | Hazard ratio vs fulvestrant [1, 7]: 0.55 | Median PFS [1, 7]: 5.6 months | PFS events (%) [1, 7]: (74.4) % | Hazard ratio vs fulvestrant [1, 8]: 0.68 | Median PFS [1, 8]: 3.8 months | PFS events (%) [1, 8]: (78.4) % | (%) of patients with clinical benefit at 24 weeks ([2]; AZD9833 75 mg): 48.6% | Number of patients with clinical benefit at 24 weeks ([2]; AZD9833 75 mg, N=70 evaluable): 34 | Adjusted CBR24 rate (%) ([2]; AZD9833 75 mg): 50.4% | CBR24: comparison against fulvestrant, odds ratio ([2]; AZD9833 75 mg): 1.73 | (%) of patients with clinical benefit at 24 weeks ([2]; AZD9833 150 mg): 52.3% | Number of patients with clinical benefit at 24 weeks ([2]; AZD9833 150 mg, N=65 evaluable): 34 | Adjusted CBR24 rate (%) ([2]; AZD9833 150 mg): 55.2% | CBR24: comparison against fulvestrant, odds ratio ([2]; AZD9833 150 mg): 2.09

C[C@]12CC[C@@H]3c4ccc(O)cc4C[C@@H](CCCCCCCCC[S+]([O-])CCCC(F)(F)C(F)(F)F)[C@H]3[C@@H]1CC[C@@H]2O (some centres unmarked) [fulvestrant, reference compound]
PFS events [no.] ([1]; fulvestrant 500 mg (n = 35), subgroup with mutation to the estrogen receptor (ESR1m)): 31 | PFS events [n] ([1]; fulvestrant 500 mg (n = 37), subgroup with prior CDK4/6 inhibitor therapy): 33 | PFS events [no.] ([1]; fulvestrant 500 mg (n = 43), subgroup with metastases to the liver and/or lungs): 39 | Median PFS [1, 9]: 3.7 months | Proportion of patients without progression at 12 m [1, 9]: 23.8% | Median PFS [1, 10]: 2.2 months | PFS events (%) [1, 10]: (88.6) % | Median PFS [1, 11]: 2.0 months | PFS events (%) [1, 11]: (90.7) % | Median PFS [1, 12]: 2.1 months | PFS events (%) [1, 12]: (89.2) % | (%) of patients with clinical benefit at 24 weeks ([2]; fulvestrant): 36.8% | Number of patients with clinical benefit at 24 weeks ([2]; fulvestrant, N=68 evaluable): 25 | Adjusted CBR24 rate (%) ([2]; fulvestrant): 37.1%
